Test results from patent US12558317B2, “Compositions and methods for treating disorders ameliorated by muscarinic receptor activation” (Karuna Therapeutics, Inc., priority 2018, dated 2026).

Experiments:
[1] = Mutagenic potential
[2] = 26-week study of Alzheimer's disease; cited from earlier work
[3] = KAR-001 Phase I study: xanomeline pharmacokinetics; conditions: human, in vivo, 225 mg daily; for AUC / Cmax: oral, geometric mean; for AUC: Xanomeline AUC0-tau; for Cmax: Xanomeline Cmax
Method: A Phase I, double-blind, randomized multiple-dose pilot study was conducted with xanomeline administered alone compared to xanomeline administered with trospium chloride in normal healthy volunteers. […]

[4] = tested on: normal healthy volunteers; assay: KAR-001 Phase I study: safety and tolerability, cholinergic adverse events; assay type: in vivo, human
[5] = KAR-001 Safety Population, cholinergic TEAE, number of individual occurrences
[6] = KAR-001 Safety Population, cholinergic TEAE, number of subjects
[7] = KAR-001 Safety Population, cholinergic TEAE, percentage of subjects in arm

In the case of `CCCCCCOc1nsnc1-c1ccc[n+](C)c1` [Compound V], the mutagenic potential [1] is reported as “negative”.

In the case of `CCCCCCOc1nsnc1C1=CCCN(C)C1` [xanomeline], the dropout rate [2] is listed as 56%, the Tmax ([3]; KAR-001 Day 3, median) is listed as 2 h and the AUC ([3]; KAR-001 Day 3) is listed as 12.6 ng·h/mL. It also gave an AUC ([3]; KAR-001 Day 9) of 24.8 ng·h/mL, a Cmax ([3]; KAR-001 Day 3) of 2.95 ng/mL and a Cmax ([3]; KAR-001 Day 9) of 4.57 ng/mL. For the same compound, the “AE leading to discontinuation (D/C), # events” value ([4]; KAR-001) was 2, the “AE leading to discontinuation (D/C), %” value ([4]; KAR-001) was 6.1% and the “Any SAE, %” value ([4]; KAR-001) was “(0.0) %”. For the same compound, the “Any clinically significant TEAE, # events” value ([4]; KAR-001) was 5, the “Any clinically significant TEAE, %” value ([4]; KAR-001) was 15.2% and the “Any study drug-related TEAE, # events” value ([4]; KAR-001) was 92. The “Any study drug-related TEAE, %” value ([4]; KAR-001) was 69.7%, the “Diarrhea, # of events” value ([4]; KAR-001) was 8 and the “Diarrhea, % of subjects” value ([4]; KAR-001) was 21.2%. The “Diarrhea, n subjects” value ([4]; KAR-001) was 7, the “Max Severity of TEAE: Mild, %” value ([4]; KAR-001) was “(66.7) N/A %” and the “Max Severity of TEAE: Moderate, %” value ([4]; KAR-001) was “(15.2) N/A %”. For the same compound, the “Max Severity of TEAE: Severe, %” value ([4]; KAR-001) was “(0.0) %”, the “Max severity of study drug-related TEAE: Mild, %” value ([4]; KAR-001) was “(57/6) N/A” and the “Max severity of study drug-related TEAE: Moderate, %” value ([4]; KAR-001) was “(12.1) N/A %”. For the same compound, the “Max severity of study drug-related TEAE: Severe, %” value ([4]; KAR-001) was “(0.0) N/A %”, the “Nausea, # of events” value ([4]; KAR-001) was 11 and the “Nausea, % of subjects” value ([4]; KAR-001) was 24.2%. For the same compound, the “Nausea, n subjects” value ([4]; KAR-001) was 8, the “Salivation (salivary hypersecretion), % of subjects” value ([4]; KAR-001) was 36.4% and the “Salivation, # of events” value ([4]; KAR-001) was 16. The “Salivation, n subjects” value ([4]; KAR-001) was 12, the “Study drug related AE leading to D/C, # events” value ([4]; KAR-001) was 1 and the “Study drug related AE leading to D/C, %” value ([4]; KAR-001) was 3.0%. The “Subjects with any TEAE, # events” value ([4]; KAR-001) was 108, the “Subjects with any TEAE, %” value ([4]; KAR-001) was 81.8% and the “Sweating (hyperhidrosis), % of subjects” value ([4]; KAR-001) was 48.5%. For the same compound, the “Sweating, # of events” value ([4]; KAR-001) was 24, the “Sweating, n subjects” value ([4]; KAR-001) was 16 and the “Vomiting, # of events” value ([4]; KAR-001) was 5. The “Vomiting, % of subjects” value ([4]; KAR-001) was 15.2%, the “Vomiting, n subjects” value ([4]; KAR-001) was 5 and the “Cholinergic adverse events: Any TEAEs, # of events” value ([4]; KAR-001, healthy volunteers) was 64. The “Cholinergic adverse events: Any TEAEs, n subjects” value ([4]; KAR-001, healthy volunteers) was 21, the “Cholinergic adverse events: Any TEAEs, % of subjects” value ([4]; KAR-001, healthy volunteers, listed as Xanomeline + placebo) was 63.6% and the “Cholinergic adverse events: Any TEAEs, % of subjects” value ([4]; KAR-001, healthy volunteers, listed as xanomeline+placebo) was 63%. For the same compound, the “Diarrhea, # occurrences” value [4, 5] was 8, the “Gastrointestinal disorders, # occurrences” value [4, 5] was 40 and the “Hyperhidrosis, # occurrences” value [4, 5] was 24. For the same compound, the “Nausea, # occurrences” value [4, 5] was 11, the “Salivary hypersecretion, # occurrences” value [4, 5] was 16 and the “Skin and subcutaneous tissue disorders, # occurrences” value [4, 5] was 24. The “Vomiting, # occurrences” value [4, 5] was 5, the “Diarrhea, n subjects” value [4, 6] was 7 and the “Gastrointestinal disorders, n subjects” value [4, 6] was 18. For the same compound, the “Hyperhidrosis, n subjects” value [4, 6] was 16, the “Nausea, n subjects” value [4, 6] was 8 and the “Salivary hypersecretion, n subjects” value [4, 6] was 12. For the same compound, the “Skin and subcutaneous tissue disorders, n subjects” value [4, 6] was 16, the “Vomiting, n subjects” value [4, 6] was 5 and the “Diarrhea, % of subjects” value [4, 7] was 20.6%. The “Gastrointestinal disorders, % of subjects” value [4, 7] was 52.9%, the “Hyperhidrosis, % of subjects” value [4, 7] was 47.1% and the “Nausea, % of subjects” value [4, 7] was 23.5%. The “Salivary hypersecretion, % of subjects” value [4, 7] was 35.3%, the “Skin and subcutaneous tissue disorders, % of subjects” value [4, 7] was 47.1% and the “Vomiting, % of subjects” value [4, 7] was 14.7%. For the same compound, the “Subjects with any TEAEs (cholinergic), # occurrences” value ([4]; KAR-001 Safety Population, number of individual occurrences) was 64, the “Subjects with any TEAEs (cholinergic), n subjects” value ([4]; KAR-001 Safety Population, number of subjects) was 21 and the “Subjects with any TEAEs (cholinergic), % of subjects” value ([4]; KAR-001 Safety Population, percentage of subjects in arm) was 61.8%.
